According to patent US9243027B2, “TGR5 modulators and methods of use thereof” (Intercept Pharmaceuticals, Inc., priority 2007, dated 2016):

Molecular target: T1, TGR5 receptor (Homo sapiens, UniProt Q8TDU6)
T1 sequence (Q8TDU6 1-330): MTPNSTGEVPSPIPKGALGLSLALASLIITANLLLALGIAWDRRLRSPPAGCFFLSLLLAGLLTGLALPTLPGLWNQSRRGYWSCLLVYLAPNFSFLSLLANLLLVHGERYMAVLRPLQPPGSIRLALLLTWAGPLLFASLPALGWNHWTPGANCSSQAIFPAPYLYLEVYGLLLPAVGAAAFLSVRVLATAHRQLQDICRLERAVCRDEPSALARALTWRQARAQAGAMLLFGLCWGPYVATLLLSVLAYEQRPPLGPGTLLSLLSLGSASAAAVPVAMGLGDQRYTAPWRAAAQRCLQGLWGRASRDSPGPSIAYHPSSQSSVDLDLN
Assay: Potency and efficacy on TGR5 receptor, in vitro assays (Kawamata 2003)
Assay type: cell-based
Protocol: The potency and efficacy of the compounds of the invention on TGR5 receptor was evaluated using in vitro assays.

In the case of C[C@H](CCC(=O)O)[C@H]1CCC2C3C(CC[C@@]21C)[C@@]1(C)CC[C@@H](O)C[C@H]1C[C@H]3O (stereo partly shown) [CDCA, ChenoDeoxyCholicAcid], the “TGR5 Data Efficacy” value is reported as 100%.
